According to BindingDB's records for doi:10.7270/Q2KH0KWR (Burnham Center For Chemical Genomics, 2012):

What follows are compounds tested against T1, Tyrosine-protein phosphatase non-receptor type 5 (Homo sapiens, UniProt P54829) (assay: PTPN5 inhibition measured colorimetrically – biochemical, colorimetric absorbance, orthogonal assay for STEP inhibitor project, dose response (AID 624207)). Conditions: not given.
T1 sequence (P54829 whole entry): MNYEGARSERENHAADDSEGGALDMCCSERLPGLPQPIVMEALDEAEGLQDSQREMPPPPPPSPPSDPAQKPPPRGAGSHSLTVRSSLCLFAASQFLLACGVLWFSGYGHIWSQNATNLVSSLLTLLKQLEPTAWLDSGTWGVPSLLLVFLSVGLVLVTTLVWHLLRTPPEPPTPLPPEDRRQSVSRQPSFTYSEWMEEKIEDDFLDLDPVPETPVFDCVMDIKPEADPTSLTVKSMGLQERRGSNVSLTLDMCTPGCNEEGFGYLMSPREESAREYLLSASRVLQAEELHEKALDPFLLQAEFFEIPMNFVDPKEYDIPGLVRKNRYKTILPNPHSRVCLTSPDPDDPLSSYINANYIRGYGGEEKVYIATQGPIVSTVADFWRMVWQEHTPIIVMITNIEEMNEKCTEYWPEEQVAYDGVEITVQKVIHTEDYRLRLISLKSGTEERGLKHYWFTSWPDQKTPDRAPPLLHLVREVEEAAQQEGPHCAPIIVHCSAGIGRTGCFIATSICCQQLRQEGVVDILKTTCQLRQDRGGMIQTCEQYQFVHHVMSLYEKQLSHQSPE
Clc1ccc(Cl)c(-c2nc(-c3ccncc3)no2)c1 [4-[5-(2,5-dichlorophenyl)-1,2,4-oxadiazol-3-yl]pyridine] gave an IC50 greater than 80 µM. S=c1[nH]nc(-c2cccnc2)n1N=Cc1ccc(Br)s1 [4-[(E)-(5-bromothiophen-2-yl)methylideneamino]-3-pyridin-3-yl-1H-1,2,4-triazole-5-thione] showed an IC50 greater than 80 µM. Compound CCOC(=O)CN1C(=O)S/C(=C/c2ccc(OCc3ccc(C(=O)O)cc3)cc2)C1=O [4-[[4-[(E)-[3-(2-ethoxy-2-oxoethyl)-2,4-dioxo-5-thiazolidinylidene]methyl]phenoxy]methyl]benzoic acid] has an IC50 greater than 80 µM. O=[N+]([O-])c1ccc(O)c(Nc2ncnc3ccccc23)c1 [4-nitro-2-(4-quinazolinylamino)phenol] gave an IC50 greater than 80 µM. CCc1c(C)[nH]n(-c2ccc(Oc3ccccc3)c(S(=O)(=O)O)c2)c1=O [5-(4-ethyl-5-methyl-3-oxo-1H-pyrazol-2-yl)-2-phenoxybenzenesulfonic acid] gave an IC50 greater than 80 µM. With Cc1ccc(S(=O)(=O)Cc2ccc(C(=O)O)o2)cc1 [5-(tosylmethyl)-2-furoic acid] the IC50 was greater than 80 µM. N#C/C(=C\c1ccc(OC(=O)c2ccc(Cl)s2)cc1)c1nc2ccccc2[nH]1 [5-chloro-2-thiophenecarboxylic acid [4-[(E)-2-(1H-benzimidazol-2-yl)-2-cyanoethenyl]phenyl] ester] was tested, and the IC50 was greater than 80 µM. For NC(=O)c1cc2ccccc2o/c1=N\NC(=O)c1ccccc1O [(2Z)-2-[[(2-hydroxyphenyl)-oxomethyl]hydrazinylidene]-1-benzopyran-3-carboxamide], the IC50 was 13.7 µM. With C=c1c(O)c(O)c(=C2C(=O)C(=O)C(C)C(=O)C2=O)c(O)c1O (stereo not drawn) [(3E)-5-hydroxy-6-methyl-3-(2,3,5-trihydroxy-4-methyl-6-oxo-1-cyclohexa-2,4-dienylidene)cyclohex-5-ene-1,2,4-trione] the IC50 was greater than 80 µM. In the case of O=C1C(=O)N(CCCO)C(c2ccc(Br)cc2)C1C(=O)c1ccc(Br)cc1 (stereo not drawn) [(4E)-5-(4-bromophenyl)-4-[(4-bromophenyl)-oxidanyl-methylidene]-1-(3-oxidanylpropyl)pyrrolidine-2,3-dione], the IC50 is reported as 41.5 µM. With COc1cc(C(=S)N2CCCCC2)ccc1O [(4Z)-2-methoxy-4-[piperidin-1-yl(sulfanyl)methylidene]cyclohexa-2,5-dien-1-one] the IC50 was 15.5 µM. COc1cccc(N2[C@@H](CC(=O)O)c3ccc(/C=C/C(=O)O)cc3S2(=O)=O)c1 [(E)-3-[(3S)-3-(carboxymethyl)-2-(3-methoxyphenyl)-1,1-dioxo-3H-1,2-benzothiazol-6-yl]prop-2-enoic acid] gave an IC50 greater than 80 µM. Cc1nnc2sc(-c3ccc(NC(=O)c4ccc(-c5ccc(Cl)cc5Cl)o4)cc3)nn12 [MLS000050448] was tested, and the IC50 was greater than 80 µM. For CCc1ccc(OCC(=O)Nc2ccc(-c3nc4ccccc4o3)c(O)c2)cc1 [MLS000109444], the IC50 was greater than 80 µM. Work on C=CC1=C(C(=O)O)N2C(=O)C(NC(=O)Cc3ccccc3)C2SC1 (stereo not drawn) [MLS000123928] yielded an IC50 greater than 80 µM. S=C1N=C2C(=C3SCCS3)CCCC2C(c2ccccc2)N1 (stereo not drawn) [MLS000516376] was tested, and the IC50 was 72.8 µM. CCN(CC)P(=O)(NC(=O)C(Cl)(Cl)Cl)N(CC)CC [MLS000564159] showed an IC50 of 77.5 µM. Work on CCOc1ccc(C(=O)Nc2cc(-c3nc4ccccc4[nH]3)ccc2Cl)cc1[N+](=O)[O-] [MLS000574482] yielded an IC50 greater than 80 µM. In the case of COCCN(C(=S)Nc1c(C)cc(C)cc1C)C(C)c1cccnc1 (stereo not drawn) [MLS000584539], the IC50 is reported as greater than 80 µM. O=C(N/N=C/c1ccc(Cl)c([N+](=O)[O-])c1)c1ccc2c(c1)OCCO2 [MLS000587937] was tested, and the IC50 was 15.7 µM. For NS(=O)(=O)c1ccc(N/C(S)=N\CCc2ccccc2)cc1 [MLS000621468], the IC50 was greater than 80 µM. For CCN1CCN(C(=S)c2ccc(O)cc2)CC1 [MLS000621546], the IC50 was 33.8 µM. CN1CCN(C(=S)C(=O)Nc2ccc(Br)cc2)CC1 [MLS000665240] gave an IC50 of 12.6 µM. COC(=O)Nc1sc2c(c1C(N)=O)CCC(C)C2 (stereo not drawn) [MLS000683996] was tested, and the IC50 was 13.3 µM. For O=C(N/N=C/c1coc2ccccc2c1=O)c1cc2ccccc2o1 [MLS000700471], the IC50 was greater than 80 µM. O=C(COc1ccc(/C=N/NC(=O)c2ccc(O)cc2)cc1)Nc1cccc([N+](=O)[O-])c1 [MLS000714465] gave an IC50 of 20 µM. Compound COc1ccc(NC(=S)N(CCCN2CCC(C)CC2)Cc2cccs2)cc1Cl [MLS000729725] has an IC50 greater than 80 µM. Compound COc1ccc2cc3c(N)nn(C(=O)c4cccc(F)c4)c3nc2c1 [MLS000731294] has an IC50 greater than 80 µM. In the case of O=C(Nc1cc([N+](=O)[O-])ccc1O)c1cccc(C(=O)Nc2cc([N+](=O)[O-])ccc2O)c1 [MLS001008494], the IC50 is reported as 7.05 µM. CC(=O)N1CCOc2ccc(S(=O)(=O)NCc3ccc(F)cc3)cc21 [MLS001117284] was tested, and the IC50 was greater than 80 µM. CC(C(=O)Nc1ccc(O)cc1C(=O)O)N1C(=O)/C(=C\c2cccs2)SC1=S (stereo not drawn) [MLS001157883] showed an IC50 of 15.7 µM. For COc1ccc(-c2ccc(NC(=O)c3ccc(Br)o3)cc2)nn1 [MLS001236653], the IC50 was greater than 80 µM. Compound CSc1ccc(CN=Nc2ccc(S(=O)(=O)Nc3ccccc3C(=O)O)cc2[N+](=O)[O-])cc1 [MLS002245633] has an IC50 of 4.99 µM. O=C(N/N=C/C1C=CC=CC1=O)c1cccc([N+](=O)[O-])c1 (stereo not drawn) [MLS002667988] showed an IC50 of 15.8 µM. Work on O=C(O)Cc1cccc(O)c(=O)c1C(=O)O [MLS002703575] yielded an IC50 greater than 80 µM. Work on O=C(Nc1cccc2c(=O)[nH][nH]c(=O)c12)c1ccc([N+](=O)[O-])cc1 [MLS003171605] yielded an IC50 greater than 80 µM. In the case of CCOC(=O)c1sc2nc3c(SCC(=O)O)cc(C(=O)c4ccccc4O)cn3c(=O)c2c1C [MLS-0266851.0001], the IC50 is reported as greater than 80 µM. NC(=NOC(=O)c1cccc2ccccc12)c1cccc([N+](=O)[O-])c1 [N'-(1-naphthoyloxy)-3-nitrobenzenecarboximidamide] was tested, and the IC50 was greater than 80 µM. Work on COc1cc(Cl)cc(C=NNC(=O)c2ccc3c(c2)OCO3)c1O [N'-[(E)-(3-chloro-5-methoxy-6-oxo-1-cyclohexa-2,4-dienylidene)methyl]-1,3-benzodioxole-5-carbohydrazide] yielded an IC50 of 23.3 µM.

Same assay, conditions: inactive by the depositor's call
O=C(N/N=C/c1cccc([N+](=O)[O-])c1)c1ccc(Br)cc1 [4-bromo-N-[(E)-(3-nitrophenyl)methylideneamino]benzamide] was tested, and the IC50 was 21.5 µM. O=C(N/N=C/c1ccc(Br)cc1)c1ccc(Br)o1 [5-bromanyl-N-[(E)-(4-bromophenyl)methylideneamino]furan-2-carboxamide] gave an IC50 of 24.1 µM. With OCCN1CCN(C(=S)c2ccc(Cl)c(Cl)c2)CC1 [(3,4-dichlorophenyl)-[4-(2-hydroxyethyl)-1-piperazinyl]methanethione] the IC50 was 22 µM. S=C(c1ccc(Br)cc1)N1CCN(Cc2ccccc2)CC1 [(4-bromophenyl)-[4-(phenylmethyl)-1-piperazinyl]methanethione] gave an IC50 of 54.9 µM. CCOc1ccc(C(=S)N2CCN(C)CC2)cc1 [(4-ethoxyphenyl)-(4-methyl-1-piperazinyl)methanethione] was tested, and the IC50 was 44.3 µM. In the case of Cc1ccc(C(=S)N2CCN(Cc3ccccc3)CC2)s1 [(5-methyl-2-thiophenyl)-[4-(phenylmethyl)-1-piperazinyl]methanethione], the IC50 is reported as 32 µM. O=C(NCCCn1ccnc1)C(Cc1ccccc1)N1C(=O)c2ccccc2C1=O (stereo not drawn) [MLS000040026] showed an IC50 of 72.3 µM. COc1ccccc1NS(=O)(=O)c1cc(NC(=S)NCCN2CCOCC2)ccc1N1CCOCC1 [MLS000409155] was tested, and the IC50 was 29.7 µM. Work on O=C(N/N=C/c1ccc(OC(=O)c2cccs2)cc1)c1cccc(F)c1 [MLS000576933] yielded an IC50 of 25.5 µM. For OCCN1CCN(C(=S)c2ccc(Br)cc2)CC1 [MLS000577024], the IC50 was 57 µM. Work on CCN1CCN(C(=S)c2ccc(Cl)cc2)CC1 [MLS000594090] yielded an IC50 of 25.5 µM. Work on CN(C)c1ccc(C(=S)N2CCN(Cc3ccccc3)CC2)cc1 [MLS000679877] yielded an IC50 of 56.9 µM. For N#CNc1nc(O)cc(=O)[nH]1 [MLS000737363], the IC50 was 40 µM. In the case of Cc1cc(C)c2nc(-c3ccccn3)cc(C(=O)Nc3ccc(S(=O)(=O)Nc4onc(C)c4C)cc3)c2c1 [MLS000862518], the IC50 is reported as 42 µM. CC(C)(C)C(=O)Nc1ccc(C(=O)Nc2cccc(Oc3ccc(C(=O)O)c(C(=O)O)c3)c2)cc1 [MLS001181252] showed an IC50 of 25.2 µM. NS(=O)(=O)c1ccc(NC(=S)N2CCC(Cc3ccccc3)CC2)cc1 [MLS001196239] was tested, and the IC50 was 76 µM. In the case of Cc1c(CC(=O)O)c(=O)oc2c(C)c(OCc3ccc(F)cc3Cl)ccc12 [MLS001213411], the IC50 is reported as 23.8 µM. Work on Cc1c(CC(=O)NCCCCCC(=O)O)c(=O)oc2c(C)c3oc4c(c3cc12)CCCC4 [MLS001214831] yielded an IC50 of 32.1 µM. CCOc1ccc(/C=N/NC(=O)c2cc3c(OC)cccc3[nH]2)cc1 [MLS001216500] gave an IC50 of 28.5 µM. CC(=NNC(=O)c1ccccc1O)c1ccc(NC(=O)Cc2ccccc2)cc1 [MLS001224813] gave an IC50 of 29.4 µM. Sc1ncnc2c1ncn2-c1ccc(Cl)cc1 [MLS002638664] gave an IC50 of 64.8 µM. With S=C(c1cn(CCOc2ccccc2)c2ccccc12)N1CCCC1 [MLS-0109562.0001] the IC50 was 41.3 µM. With COc1cc(Cl)ccc1N=C(S)N(CCCN1CCOCC1)Cc1cn(C)c2ccccc12 [N'-(4-chloro-2-methoxyphenyl)-N-[(1-methyl-1H-indol-3-yl)methyl]-N-(3-morpholin-4-ylpropyl)thiourea] the IC50 was 34.4 µM. For COc1ccc(Cl)cc1N=C(S)N(CCCN1CCOCC1)Cc1cn(C)c2ccccc12 [N'-(5-chloro-2-methoxyphenyl)-N-[(1-methyl-1H-indol-3-yl)methyl]-N-(3-morpholin-4-ylpropyl)thiourea], the IC50 was 36.9 µM.
